The data set has as its system human APOE RNA. The data set can be described thus: Activity in APOE C57BL/6NTac-Apoeem7250 knock-in mice, single ICV bolus, 8 weeks (Example 11). The following applies: single ICV bolus 300 μg, 8 weeks post treatment, normalized to mouse Ppia. The class given is in vivo. On the procedure:
Modified oligonucleotides described above were tested in the APOE C57BL/6NTac-Apoeem7250 knock-in mouse model described above.
Each mouse received a single ICV bolus of 300 μg of modified oligonucleotide. A group of 3-4 mice received a single ICV bolus with PBS as a negative control.
Eight weeks post treatment, mice were sacrificed and RNA was extracted from cortical brain tissue and spinal cord for quantitative real-time RT-PCR analysis of RNA expression of APOE using human primer probe set RTS3073 (described herein above). APOE RNA levels were normalized to mouse Ppia. Mouse Ppia was amplified using primer probe set m_cyclo24 (described herein above). Results are presented as percent human APOE RNA relative to the amount of human APOE RNA in PBS treated animals, (% control). Each experiment is identified in separate tables below.

Strand notation (5' to 3'): a small letter for the sugar, then the base; units joined by * are phosphorothioate-linked, units joined directly phosphodiester-linked; [ ] holds rarer units or linkages, { } end groups; capitals alone tell only the bases. [ms] = mesyl phosphoramidate linkage; e = 2'-O-(2-methoxyethyl) (MOE); k = constrained ethyl (cEt); [5mC] = 5-methylcytosine; d = 2'-deoxy (DNA)

With “1652898: 6-10-4 MOE gapmer GGTGAATCTTTATTAAACTA, linkages sooooossssssssssoss (antisense eG*eGeTeGeAeAdT*d[5mC]*dT*dT*dT*dA*dT*dT*dA*dA*eAe[5mC]*eT*eA) [compound 1652898]”, the “APOE RNA (% control) Cortex” value was found to be 56 % control and the “APOE RNA (% control) Spinal Cord” value worked out at 20 % control.

Consider “1652905: 6-10-4 MOE gapmer GGTGAATCTTTATTAAACTA, linkages sooossssssssssssoss (antisense eG*eGeTeGeA*eA*dT*d[5mC]*dT*dT*dT*dA*dT*dT*dA*dA*eAe[5mC]*eT*eA) [compound 1652905]”, for which the “APOE RNA (% control) Cortex” value is given as 44 % control and the “APOE RNA (% control) Spinal Cord” value was 15 % control.

Turning to “1652919: 6-10-4 MOE gapmer GGTGAATCTTTATTAAACTA, linkages soooooszzzssssssoss (antisense eG*eGeTeGeAeAdT*d[5mC][ms]dT[ms]dT[ms]dT*dA*dT*dT*dA*dA*eAe[5mC]*eT*eA) [compound 1652919]”, the “APOE RNA (% control) Cortex” value is 90 % control and the “APOE RNA (% control) Spinal Cord” value turned out to be 54 % control.

Consider “1652912: 5-10-5 MOE gapmer GGTGAATCTTTATTAAACTA, linkages sooossssssszsszooss (antisense eG*eGeTeGeA*dA*dT*d[5mC]*dT*dT*dT*dA[ms]dT*dT*dA[ms]eAeAe[5mC]*eT*eA) [compound 1652912]”, for which the “APOE RNA (% control) Cortex” value turned out to be 95 % control and the “APOE RNA (% control) Spinal Cord” value was found to be 41 % control.

On to “1652911: 5-10-5 MOE gapmer GGTGAATCTTTATTAAACTA, linkages sooosszzzssssssooss (antisense eG*eGeTeGeA*dA*dT[ms]d[5mC][ms]dT[ms]dT*dT*dA*dT*dT*dA*eAeAe[5mC]*eT*eA) [compound 1652911]”, for which the “APOE RNA (% control) Cortex” value was 130 % control and the “APOE RNA (% control) Spinal Cord” value stood at 57 % control.

Regarding “1652909: 5-10-5 MOE gapmer GGTGAATCTTTATTAAACTA, linkages soooszzzzssssssooss (antisense eG*eGeTeGeA*dA[ms]dT[ms]d[5mC][ms]dT[ms]dT*dT*dA*dT*dT*dA*eAeAe[5mC]*eT*eA) [compound 1652909]”, the “APOE RNA (% control) Cortex” value turned out to be 55 % control and the “APOE RNA (% control) Spinal Cord” value stood at 23 % control.

As to “1652916: 5-10-5 MOE gapmer GGTGAATCTTTATTAAACTA, linkages soooszzzsssssszooss (antisense eG*eGeTeGeA*dA[ms]dT[ms]d[5mC][ms]dT*dT*dT*dA*dT*dT*dA[ms]eAeAe[5mC]*eT*eA) [compound 1652916]”, the “APOE RNA (% control) Cortex” value is given as 128 % control and the “APOE RNA (% control) Spinal Cord” value was 49 % control.

Turning to “1652914: 5-10-5 MOE gapmer GGTGAATCTTTATTAAACTA, linkages soooszzssssssszooss (antisense eG*eGeTeGeA*dA[ms]dT[ms]d[5mC]*dT*dT*dT*dA*dT*dT*dA[ms]eAeAe[5mC]*eT*eA) [compound 1652914]”, the “APOE RNA (% control) Cortex” value amounted to 108 % control and the “APOE RNA (% control) Spinal Cord” value is reported as 43 % control.

As for “1652900: 6-10-4 MOE gapmer GTGAATCTTTATTAAACTAG, linkages sooooossssssssssoss (antisense eG*eTeGeAeAeTd[5mC]*dT*dT*dT*dA*dT*dT*dA*dA*dA*e[5mC]eT*eA*eG) [compound 1652900]”, the “APOE RNA (% control) Cortex” value is given as 83 % control and the “APOE RNA (% control) Spinal Cord” value was found to be 47 % control.

“1652913: 5-10-5 MOE gapmer GGTGAATCTTTATTAAACTA, linkages soooszssssszsszooss (antisense eG*eGeTeGeA*dA[ms]dT*d[5mC]*dT*dT*dT*dA[ms]dT*dT*dA[ms]eAeAe[5mC]*eT*eA) [compound 1652913]”: the “APOE RNA (% control) Cortex” value is 75 % control and the “APOE RNA (% control) Spinal Cord” value was found to be 33 % control.

Take “1652908: 5-10-5 MOE gapmer GGTGAATCTTTATTAAACTA, linkages soooszzzsssssssooss (antisense eG*eGeTeGeA*dA[ms]dT[ms]d[5mC][ms]dT*dT*dT*dA*dT*dT*dA*eAeAe[5mC]*eT*eA) [compound 1652908]”: the “APOE RNA (% control) Cortex” value was 54 % control and the “APOE RNA (% control) Spinal Cord” value was 18 % control.

Turning to “1652917: 6-10-4 MOE gapmer GGTGAATCTTTATTAAACTA, linkages sooooossssszsszzoss (antisense eG*eGeTeGeAeAdT*d[5mC]*dT*dT*dT*dA[ms]dT*dT*dA[ms]dA[ms]eAe[5mC]*eT*eA) [compound 1652917]”, the “APOE RNA (% control) Cortex” value is 107 % control and the “APOE RNA (% control) Spinal Cord” value stood at 41 % control.

For the substance “1652899: 6-10-4 MOE gapmer TGGTGAATCTTTATTAAACT, linkages sooooossssssssssoss (antisense eT*eGeGeTeGeAdA*dT*d[5mC]*dT*dT*dT*dA*dT*dT*dA*eAeA*e[5mC]*eT) [compound 1652899]”, the “APOE RNA (% control) Cortex” value worked out at 57 % control and the “APOE RNA (% control) Spinal Cord” value came out at 16 % control.

Regarding “1809688: mixed MOE/cEt gapmer CTTGGTGAATCTTTATTAA, sugar eeeekddddddddddkkee, linkages sosssszzzssssszoss (e[5mC]*eTeT*eG*kG*dT*dG[ms]dA[ms]dA[ms]dT*d[5mC]*dT*dT*dT*dA[ms]kTkT*eA*eA) [compound 1809688]”, the “APOE RNA (% control) Cortex” value stood at 22 % control and the “APOE RNA (% control) Spinal Cord” value was 37 % control.

Regarding “1652910: 5-10-5 MOE gapmer GGTGAATCTTTATTAAACTA, linkages sooosszzsssssssooss (antisense eG*eGeTeGeA*dA*dT[ms]d[5mC][ms]dT*dT*dT*dA*dT*dT*dA*eAeAe[5mC]*eT*eA) [compound 1652910]”, the “APOE RNA (% control) Cortex” value amounted to 82 % control and the “APOE RNA (% control) Spinal Cord” value stood at 39 % control.

For the substance “1809744: mixed MOE/cEt gapmer CTTGGTGAATCTTTATTAAAC, sugar eeeekkddddddddddeeeee, linkages zsoooszzsssssszsoosz (e[5mC][ms]eT*eTeGkGkT*dG[ms]dA[ms]dA*dT*d[5mC]*dT*dT*dT*dA[ms]dT*eTeAeA*eA[ms]e[5mC]) [compound 1809744]”, the “APOE RNA (% control) Cortex” value turned out to be 19 % control and the “APOE RNA (% control) Spinal Cord” value is 11 % control.

“1810065: mixed MOE/cEt gapmer CTTGGTGAATCTTTATTAAAC, sugar eeeeekddddddddddeeeee, linkages ssoosszzzssssszsooss (listed as DNA, chemistry not fully specified) [compound 1810065]”: the “APOE RNA (% control) Cortex” value is 29 % control and the “APOE RNA (% control) Spinal Cord” value was found to be 21 % control.

Take “1809690: mixed MOE/cEt gapmer CTTGGTGAATCTTTATTAA, sugar eeeekddddddddddkkek, linkages sosssszzzssssszoss (e[5mC]*eTeT*eG*kG*dT*dG[ms]dA[ms]dA[ms]dT*d[5mC]*dT*dT*dT*dA[ms]kTkT*eA*kA) [compound 1809690]”: the “APOE RNA (% control) Cortex” value turned out to be 26 % control and the “APOE RNA (% control) Spinal Cord” value was 24 % control.
